The NIST ThermoML archive (doi:10.1021/acs.jced.6b00458)

Test: mn = molality of the nth substance listed, in mol/kg
Details: 100 kPa, Liquid, Vibrating tube method

[Cl-].[Na+] [sodium chloride] + O
mass density [kg/m3]
Details	m1 = 0.1	m1 = 0.2	m1 = 0.3	m1 = 0.4	m1 = 0.5	m1 = 0.6
293.15 K	1002.42	1006.57	1010.63	1014.73	1018.78	1022.6
298.15 K	1001.21	1005.31	1009.33	1013.38	–	1021.15
303.15 K	999.767	1003.83	1007.8	1011.82	1015.77	–
308.15 K	998.116	1002.14	1006.08	1010.07	–	1017.71
313.15 K	996.272	1000.27	1004.18	1008.14	1012.04	1015.73
